Measurements as given in patent EP0137212A2, “Ointment bases and ointments” (OTSUKA PHARMACEUTICAL CO., LTD., priority 1983, dated 1985).
Values after ≈ are worked out from the molar mass of the structure shown. Read-outs that look alike come from different tables or passages of the source.

Assays:
Steroid Solubility Test = format: physicochemical
Method: This test was conducted to determine the maximum weight of Steroids A and B that could completely dissolve in 1 ml of various solvents at a temperature of 20°C.

[1] = tested on: carrageenin-induced paw edema; experiment: Inhibition of carrageenin-induced paw edema in rats; format: in vivo; details: 200 mg ointment (Ointment A / Ointment B) rubbed into right hind paw 1 and 2 hours before carrageenin
Method: After the ointment was applied to a rat's hind paw, carrageenin serving as a phlogogen was injected into the same hind paw, and the swelling caused by the phlogogen was measured. More specifically stated, the test was carried out as given below, using groups of 5 rats (weighing 175 g). First, the right hind paw of the rat was immersed in water, and the displacement was measured thereby giving the volume of hind paw. One and 2 hours before the injection of the phlogogen (carrageenin), 200 mg of the ointment was elaborately rubbed into the right hind paw of the rat, which was then wrapped in Saran Wrap (trademark) and covered with an elastic strip of adhesive plaster. Thereafter, 0.1 ml of a 1% solution of carrageenin was injected into the right hind paw, and the volume of the hind paw was hourly measured to determine the swelling (%) according to the following equation based on the volume thereof before the injection with the results shown in Fig. 1. [formula] wherein V0 is the volume of the right hind paw before the injection of carrageenin and V1 is the volume thereof after the injection of carrageenin.

SMILES	solubility (Steroid Solubility Test; organic solvent or mixture, solvent 1,3-Butanediol, 20°C, read-out: maximum weight that could completely dissolve in 1 ml of solvent)	solubility (Steroid Solubility Test; organic solvent or mixture, solvent 1,3-Dimethyl-2-imidazolidinone, 20°C, read-out: maximum weight that could completely dissolve in 1 ml of solvent)	solubility (Steroid Solubility Test; organic solvent or mixture, solvent Benzyl alcohol, 20°C, read-out: maximum weight that could completely dissolve in 1 ml of solvent)	solubility (Steroid Solubility Test; organic solvent or mixture, solvent Diethyl sebacate, 20°C, read-out: maximum weight that could completely dissolve in 1 ml of solvent)	solubility (Steroid Solubility Test; organic solvent or mixture, solvent Polyethylene glycol 400, 20°C, read-out: maximum weight that could completely dissolve in 1 ml of solvent)	solubility (Steroid Solubility Test; organic solvent or mixture, solvent Propylene glycol, 20°C, read-out: maximum weight that could completely dissolve in 1 ml of solvent)	anti-inflammatory activity (swelling of hind paw, Fig. 1, in words) [1]	solubility (Steroid Solubility Test; 1,3-butanediol, organic solvent or mixture)	solubility (Steroid Solubility Test; 1,3-dimethyl-2-imidazolidinone, organic solvent or mixture)	solubility (Steroid Solubility Test; benzyl alcohol, organic solvent or mixture)	solubility (Steroid Solubility Test; diethyl sebacate, organic solvent or mixture)	solubility (Steroid Solubility Test; polyethylene glycol 400, organic solvent or mixture)	solubility (Steroid Solubility Test; propylene glycol, organic solvent or mixture)
CCOC(=O)O[C@]1(C(=O)OCCl)CC[C@H]2[C@@H]3CCC4=CC(=O)C=C[C@]4(C)[C@H]3[C@@H](O)C[C@@]21C [Steroid A, chloromethyl 17α-ethoxycarbonyloxy-11β-hydroxyandrosta-1,4-diene-3-one-17β-carboxylate]	1950 µg/mL (≈ 4.18 mM)	357000 µg/mL (≈ 765 mM)	> 25000 µg/mL	6850 µg/mL (≈ 14.7 mM)	13300 µg/mL (≈ 28.5 mM)	2700 µg/mL (≈ 5.78 mM)	exhibit an anti-inflammatory activity	–	–	–	–	–	–
CCOC(=O)O[C@]1(C(=O)OCCl)[C@H](C)C[C@H]2[C@@H]3CCC4=CC(=O)C=C[C@]4(C)[C@@]3(F)[C@@H](O)C[C@@]21C [Steroid B, chloromethyl 17a-ethoxycarbonyloxy-9a-fluoro-11β-hydroxy-16α-methylandrosta-1,4-diene-3-one-17β-carboxylate]	–	–	–	–	–	–	exhibit an anti-inflammatory activity	50 µg/mL (≈ 0.1 mM)	52100 µg/mL (≈ 104 mM)	920 µg/mL (≈ 1.84 mM)	280 µg/mL (≈ 0.561 mM)	450 µg/mL (≈ 0.902 mM)	100 µg/mL (≈ 0.2 mM)
